The structures appear in SMILES notation.

The experiment has as its target T1, KRAS^G12C::SOS1 (Homo sapiens, UniProt Q07889).
T1 sequence (Q07889 1-1333): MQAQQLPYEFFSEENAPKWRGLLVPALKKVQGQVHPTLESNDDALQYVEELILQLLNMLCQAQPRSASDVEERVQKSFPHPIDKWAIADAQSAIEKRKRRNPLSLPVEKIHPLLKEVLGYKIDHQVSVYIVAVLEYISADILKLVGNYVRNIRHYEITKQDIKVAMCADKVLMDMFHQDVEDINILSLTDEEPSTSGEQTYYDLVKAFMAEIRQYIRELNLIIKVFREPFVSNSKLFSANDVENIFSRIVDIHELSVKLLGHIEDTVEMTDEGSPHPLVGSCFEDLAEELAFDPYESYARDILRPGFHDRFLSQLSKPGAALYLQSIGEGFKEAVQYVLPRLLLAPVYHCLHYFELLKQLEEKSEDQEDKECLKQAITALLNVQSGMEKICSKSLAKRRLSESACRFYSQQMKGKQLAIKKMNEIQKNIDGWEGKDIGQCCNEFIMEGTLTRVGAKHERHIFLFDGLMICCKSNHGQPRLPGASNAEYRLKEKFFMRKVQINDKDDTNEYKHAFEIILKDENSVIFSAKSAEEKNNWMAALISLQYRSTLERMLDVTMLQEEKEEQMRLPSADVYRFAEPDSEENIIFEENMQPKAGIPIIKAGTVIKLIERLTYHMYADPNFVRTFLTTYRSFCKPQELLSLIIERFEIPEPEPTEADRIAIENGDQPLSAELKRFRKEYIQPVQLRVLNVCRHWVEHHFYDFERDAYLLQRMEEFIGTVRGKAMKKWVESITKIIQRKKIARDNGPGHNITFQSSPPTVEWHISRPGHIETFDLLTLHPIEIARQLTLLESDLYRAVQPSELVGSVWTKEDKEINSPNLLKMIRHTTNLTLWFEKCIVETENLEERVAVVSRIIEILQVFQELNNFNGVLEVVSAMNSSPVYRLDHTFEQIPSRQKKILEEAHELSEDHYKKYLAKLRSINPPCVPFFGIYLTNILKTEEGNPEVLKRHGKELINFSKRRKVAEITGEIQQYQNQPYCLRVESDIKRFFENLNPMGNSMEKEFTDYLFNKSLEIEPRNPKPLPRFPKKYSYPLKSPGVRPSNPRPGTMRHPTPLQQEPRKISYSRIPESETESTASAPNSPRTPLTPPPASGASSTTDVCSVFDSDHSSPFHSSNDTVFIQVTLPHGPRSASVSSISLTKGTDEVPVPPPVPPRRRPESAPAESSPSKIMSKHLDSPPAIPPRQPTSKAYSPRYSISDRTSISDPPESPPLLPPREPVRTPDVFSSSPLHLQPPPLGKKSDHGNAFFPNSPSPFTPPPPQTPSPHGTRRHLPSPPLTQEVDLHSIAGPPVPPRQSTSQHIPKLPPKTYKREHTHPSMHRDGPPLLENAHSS
As to the kind of experiment: KRAS G12C::SOS1 protein-protein interaction (PPI) inhibition assay (HTRF binding kit). In general terms: In TR-FRET formats the signal depends on donor and acceptor labels being close together.
Procedure: Protein-protein interaction between SOS1 and KRAS^G12C was detected using KRAS G12C/SOS1 binding kit from CISBIO (64KRASG12PEH, CISBIO, FRANCE) according to the manufacturer's assay method. Briefly, the maximum concentration of an inhibitor sample was set to be 3 µM, and the inhibitor sample was diluted 7 times by 1/3, and samples having a total of 8 concentrations were prepared. In HTRF (Homogeneous Time-Resolved Fluorescence) exclusive 96-well low-volume white plate (66PL96005, CISBIO, FRANCE), 2 µL of an inhibitor sample prepared for each concentration, 5 µL of a mixed solution of Tag1-labeled KRAS^G12C protein and GTP diluted with the dilution solution provided by the manufacturer, and 5 µL of Tag2 labeled SOS1 protein were mixed, and added with 8 µL of a diluted solution where anti-Tag1 KRAS^G12C XL665 (HTRF acceptor) labeled antibody and anti-Tag2 SOS1 Terbium cryptate (HTRF donor) labeled antibody were mixed in an equal ratio and incubated at room temperature for 2 h.
Broadly, the IC50 is the concentration at which inhibition is half-maximal. A lower IC50 goes with higher potency. As to `C[C@@H](NC(=O)c1ccc(=O)n(-c2ccc3cnn(C)c3c2)n1)c1cc(N)cc(C(F)(F)F)c1` [Example 236, N-[(1R)-1-[3-amino-5-(trifluoromethyl)phenyl]ethyl]-1-(1-methyl-1H-indazol-6-yl)-6-oxo-1,6-dihydropyridazine-3-carboxamide], the IC50 is below 1000 nM.

In turn, `[2H]C([2H])([2H])n1nncc1-c1cccc(-n2nc(C(=O)N[C@H](C)c3cc(N)cc(C(F)(F)F)c3)ccc2=O)c1` [Example 237, N-[(1R)-1-[3-amino-5-(trifluoromethyl)phenyl]ethyl]-1-[3-(3-(trideuteriomethyl)triazol-4-yl)phenyl]-6-oxo-pyridazine-3-carboxamide] displayed an IC50 below 1000 nM.

On to `C[C@@H](NC(=O)c1ccc(=O)n(-c2ccc3nnn(C)c3c2)n1)c1cc(N)cc(C(F)(F)F)c1` [Example 238, N-[(1R)-1-[3-amino-5-(trifluoromethyl)phenyl]ethyl]-1-(1-methyl-1H-1,2,3-benzotriazol-6-yl)-6-oxo-1,6-dihydropyridazine-3-carboxamide], for which the IC50 is below 1000 nM.

`C[C@@H](NC(=O)c1ccc(=O)n(-c2cccc(-c3ncco3)c2)n1)c1cc(N)cc(C(F)(F)F)c1` [Example 239, N-[(1R)-1-[3-amino-5-(trifluoromethyl)phenyl]ethyl]-1-[3-(1,3-oxazol-2-yl)phenyl]-6-oxo-1,6-dihydropyridazine-3-carboxamide] displayed an IC50 of 1000 to 10000 nM.

With `C[C@@H](NC(=O)c1ccc(=O)n(-c2ccc3cnn(C)c3c2F)n1)c1cc(N)cc(C(F)(F)F)c1` [Example 240, N-[(1R)-1-[3-amino-5-(trifluoromethyl)phenyl]ethyl]-1-(7-fluoro-1-methyl-1H-indazol-6-yl)-6-oxo-1,6-dihydropyridazine-3-carboxamide], the IC50 was below 1000 nM.

The molecule `C[C@@H](NC(=O)c1cc(Br)c(=O)n(-c2ccccc2)n1)c1cc(N)cc(C(F)(F)F)c1` [Example 241, (R)-N-(1-(3-amino-5-(trifluoromethyl)phenyl)ethyl)-5-bromo-6-oxo-1-phenyl-1,6-dihydropyridazine-3-carboxamide] had an IC50 below 1000 nM.

Turning to `COCC(F)(F)c1cccc([C@@H](C)NC(=O)c2ccc(=O)n(-c3ccccc3F)n2)c1F` [Example 242, N-[(1R)-1-[3-(1,1-difluoro-2-methoxy-ethyl)-2-fluoro-phenyl]ethyl]-1-(2-fluorophenyl)-6-oxo-pyridazine-3-carboxamide], the IC50 was below 1000 nM.

As for `C[C@@H](NC(=O)c1ccc(=O)n(-c2ccccc2F)n1)c1cccc(C(F)(F)CN)c1F` [Example 243, N-[(1R)-1-[3-(2-amino-1,1-difluoro-ethyl)-2-fluoro-phenyl]ethyl]-1-(2-fluorophenyl)-6-oxo-pyridazine-3-carboxamide], the IC50 is below 1000 nM.

Turning to `C[C@@H](NC(=O)c1ccc(=O)n(-c2ccccc2F)n1)c1cc(N)cc(C(F)(F)F)c1F` [Example 245, N-[(1R)-1-[5-amino-2-fluoro-3-(trifluoromethyl)phenyl]ethyl]-1-(2-fluorophenyl)-6-oxo-pyridazine-3-carboxamide], the IC50 was below 1000 nM.

Take `Cc1c([C@@H](C)NC(=O)c2ccc(=O)n(-c3ccccc3F)n2)cccc1C(F)(F)CO` [Example 246, N-[(1R)-1-[3-(1,1-difluoro-2-hydroxy-ethyl)-2-methyl-phenyl]ethyl]-1-(2-fluorophenyl)-6-oxo-pyridazine-3-carboxamide]: the IC50 is below 1000 nM.

For `C[C@@H](NC(=O)c1ccc(=O)n(-c2ccccc2OC(F)F)n1)c1cc(N)cc(C(F)(F)F)c1` [Example 247, N-[(1R)-1-[3-amino-5-(trifluoromethyl)phenyl]ethyl]-1-[2-(difluoromethoxy)phenyl]-6-oxo-pyridazine-3-carboxamide], the IC50 is below 1000 nM.

`C[C@@H](NC(=O)c1ccc(=O)n(-c2cccc(C(=O)OC(C)(C)C)c2)n1)c1cc(N)cc(C(F)(F)F)c1` [Example 248, Tert-butyl 3-[3-[[(1R)-1-[3-amino-5-(trifluoromethyl)phenyl]ethyl]carbamoyl]-6-oxo-pyridazin-1-yl]benzoate] registered an IC50 below 1000 nM.

In turn, `C[C@@H](NC(=O)c1ccc(=O)n(-c2cccc(C(=O)N3CCNCC3)c2)n1)c1cc(N)cc(C(F)(F)F)c1` [Example 250, N-[(1R)-1-[3-amino-5-(trifluoromethyl)phenyl]ethyl]-6-oxo-1-[3-(piperazine-1-carbonyl)phenyl]pyridazine-3-carboxamide] returned an IC50 below 1000 nM.

Molecule `C[C@@H](NC(=O)c1ccc(=O)n(-c2cccc(C(=O)NCCN(C)C)c2)n1)c1cc(N)cc(C(F)(F)F)c1` [Example 251, N-[(1R)-1-[3-amino-5-(trifluoromethyl)phenyl]ethyl]-1-[3-[2-(dimethylamino)ethylcarbamoyl]phenyl]-6-oxo-pyridazine-3-carboxamide] had an IC50 below 1000 nM.

`C[C@@H](NC(=O)c1ccc(=O)n(-c2cccc(C(N)=O)c2)n1)c1cc(N)cc(C(F)(F)F)c1` [Example 252, N-[(1R)-1-[3-amino-5-(trifluoromethyl)phenyl]ethyl]-1-(3-carbamoylphenyl)-6-oxo-pyridazine-3-carboxamide]: the IC50 was below 1000 nM.

`CNC(=O)c1cccc(-n2nc(C(=O)N[C@H](C)c3cc(N)cc(C(F)(F)F)c3)ccc2=O)c1` [Example 253, N-[(1R)-1-[3-amino-5-(trifluoromethyl)phenyl]ethyl]-1-[3-(methylcarbamoyl)phenyl]-6-oxo-pyridazine-3-carboxamide] displayed an IC50 below 1000 nM.

As for `C[C@@H](NC(=O)c1ccc(=O)n(-c2cccc(C(=O)N3CCOCC3)c2)n1)c1cc(N)cc(C(F)(F)F)c1` [Example 254, N-[(1R)-1-[3-amino-5-(trifluoromethyl)phenyl]ethyl]-1-[3-(morpholine-4-carbonyl)phenyl]-6-oxo-pyridazine-3-carboxamide], the IC50 was below 1000 nM.

In turn, `C[C@@H](NC(=O)c1ccc(=O)n(-c2cccc(C(=O)N3CCN(C)CC3)c2)n1)c1cc(N)cc(C(F)(F)F)c1` [Example 255, N-[(1R)-1-[3-amino-5-(trifluoromethyl)phenyl]ethyl]-1-[3-(4-methylpiperazine-1-carbonyl)phenyl]-6-oxo-pyridazine-3-carboxamide] registered an IC50 below 1000 nM.

In turn, `CNCC(F)(F)c1cccc([C@@H](C)NC(=O)c2ccc(=O)n(-c3ccccc3F)n2)c1F` [Example 256, N-[(1R)-1-[3-[1,1-difluoro-2-(methylamino)ethyl]-2-fluorophenyl]ethyl]-1-(2-fluorophenyl)-6-oxo-pyridazine-3-carboxamide] came in with an IC50 below 1000 nM.

As to `C[C@@H](NC(=O)c1ccc(=O)n(-c2ccccc2F)n1)c1cccc(C(F)(F)CN(C)C)c1F` [Example 257, N-[(1R)-1-[3-[2-(dimethylamino)-1,1-difluoro-ethyl]-2-fluorophenyl]ethyl]-1-(2-fluorophenyl)-6-oxo-pyridazine-3-carboxamide], the IC50 is below 1000 nM.

In turn, `C[C@@H](NC(=O)c1ccc(=O)n(-c2ccccc2F)n1)c1cccc(C(F)(F)CN(C)C)c1` [Example 258, N-[(1R)-1-[3-[2-(dimethylamino)-1,1-difluoro-ethyl]phenyl]ethyl]-1-(2-fluorophenyl)-6-oxo-pyridazine-3-carboxamide] had an IC50 below 1000 nM.

The values are drawn from patent publication EP4667458A1 (Kanaph Therapeutics Inc., priority 2023, dated 2024).
